Data reported in ChEMBL document CHEMBL1123664, “Preparation and antitumor activity of new mitomycin A analogues” (J Med Chem, 1987).
“And” between values parts separate entries of the source, which are not always exact repeats. Identical values can stand only once.

What was measured:
[1] = Partition coefficient (logP); type: physicochemical; details: octanol/water
[2] = system: P388; assay: Antitumor activity against intraperitoneally implanted P388 leukemia cells in mice expressed as ratio of median survival time for treated group to that of control group at an optimal dose of 3.2 mg/kg; type: functional, Mus musculus; details: route intraperitoneal
[3] = system: P388; assay: Antitumor activity against intraperitoneally implanted P388 leukemia cells in mice expressed as […] effective dose at an optimal dose of 3.2 mg/kg; type: functional; details: Mus musculus, P388, ip, route intraperitoneal, read-out: MED
[4] = system: B16; assay: Antitumor activity against subcutaneously B16 melanoma cells in mice expressed as ratio of median survival time for treated group to that of control group at an optimal dose of 0.8 mg/kg; type: functional, Mus musculus; details: route subcutaneous
[5] = system: B16; assay: Antitumor activity against subcutaneously B16 melanoma cells in mice at an optimal dose of 0.8 mg/kg expressed as […] effective dose; type: functional, Mus musculus; details: route subcutaneous; for minimal effective dose at 0.8 mg/kg: Mus musculus, B16, sc, read-out: MED
[6] = system: P388; assay: Antitumor activity against intraperitoneally implanted P388 leukemia cells in mice expressed as ratio of median survival time for treated group to that of control group at an optimal dose of 0.8 mg/kg; type: functional, Mus musculus; details: route intraperitoneal
[7] = system: P388; assay: Antitumor activity against intraperitoneally implanted P388 leukemia cells in mice at an optimal dose of 0.8 mg/kg expressed as […] effective dose; type: functional; details: Mus musculus, P388, ip, route intraperitoneal, read-out: MED
[8] = system: P388; assay: Antitumor activity against intraperitoneally implanted P388 leukemia cells in mice expressed as ratio of median survival time for treated group to that of control group at an optimal dose 0.8 mg/kg; type: functional, Mus musculus; details: route intraperitoneal
[9] = system: P388; assay: Antitumor activity against intraperitoneally implanted P388 leukemia cells in mice at an optimal dose 0.8 mg/kg expressed as […] effective dose; type: functional; details: Mus musculus, P388, ip, route intraperitoneal, read-out: MED
[10] = system: P388; assay: Antitumor activity against intraperitoneally implanted P388 leukemia cells in mice at an optimal dose of 3.2 mg/kg expressed as […] effective dose; type: functional; details: Mus musculus, P388, ip, route intraperitoneal, read-out: MED
[11] = system: P388; assay: Antitumor activity against intraperitoneally implanted P388 leukemia cells in mice expressed as ratio of median survival time for treated group to that of control group at an optimal dose of 1.6 mg/kg; type: functional, Mus musculus; details: route intraperitoneal
[12] = system: P388; assay: Antitumor activity against intraperitoneally implanted P388 leukemia cells in mice at an optimal dose of 1.6 mg/kg expressed as […] effective dose; type: functional; details: Mus musculus, P388, ip, route intraperitoneal, read-out: MED
[13] = system: B16; assay: Antitumor activity against subcutaneously B16 melanoma cells in mice expressed as […] effective dose at an optimal dose of 0.8 mg/kg; type: functional; details: Mus musculus, B16, sc, route subcutaneous, read-out: MED
[14] = system: P388; assay: Antitumor activity against intraperitoneally implanted P388 leukemia cells in mice expressed as ratio of median survival time for treated group to that of control group at an optimal dose of 0.4 mg/kg; type: functional, Mus musculus; details: route intraperitoneal
[15] = system: P388; assay: Antitumor activity against intraperitoneally implanted P388 leukemia cells in mice at an optimal dose of 0.4 mg/kg expressed as […] effective dose; type: functional, Mus musculus; details: route intraperitoneal; for minimal effective dose at 0.4 mg/kg: Mus musculus, P388, ip, read-out: MED
[16] = system: P388; assay: Antitumor activity against intraperitoneally implanted P388 leukemia cells in mice expressed as ratio of median survival time for treated group to that of control group at an optimal dose of 6.4 mg/kg; type: functional, Mus musculus; details: route intraperitoneal
[17] = system: P388; assay: Antitumor activity against intraperitoneally implanted P388 leukemia cells in mice at an optimal dose of 6.4 mg/kg expressed as […] effective dose; type: functional; details: Mus musculus, P388, ip, route intraperitoneal, read-out: MED
[18] = system: B16; assay: (§1) Antitumor activity against subcutaneously B16 melanoma cells in mice expressed as ratio of median survival time for treated group to that of control group at an optimal dose of 1-3 mg/kg; type: functional, Mus musculus
[19] = system: B16; assay: Antitumor activity against subcutaneously B16 melanoma cells in mice expressed as ratio of median survival time for treated group to that of control group at an optimal dose of 1.6 mg/kg; type: functional, Mus musculus; details: route subcutaneous
[20] = system: B16; assay: Antitumor activity against subcutaneously B16 melanoma cells in mice at an optimal dose of 1.6 mg/kg expressed as […] effective dose; type: functional; details: Mus musculus, B16, sc, route subcutaneous, read-out: MED
[21] = system: B16; assay: Antitumor activity against subcutaneously B16 melanoma cells in mice expressed as ratio of median survival time for treated group to that of control group at an optimal dose of 0.4 mg/kg; type: functional, Mus musculus; details: route subcutaneous
[22] = system: B16; assay: Antitumor activity against subcutaneously B16 melanoma cells in mice at an optimal dose of 0.4 mg/kg expressed as […] effective dose; type: functional; details: Mus musculus, B16, sc, route subcutaneous, read-out: MED
[23] = system: B16; assay: as §1; type: functional, Mus musculus; remark: listed apart in the source
[24] = system: P388; assay: Antitumor activity against intraperitoneally implanted P388 leukemia cells in mice expressed as ratio of median survival time for treated group to that of control group at an optimal dose of 0.2 mg/kg; type: functional, Mus musculus; details: route intraperitoneal
[25] = system: P388; assay: Antitumor activity against intraperitoneally implanted P388 leukemia cells in mice at an optimal dose of 0.2 mg/kg expressed as […] effective dose; type: functional; details: Mus musculus, P388, ip, route intraperitoneal, read-out: MED
[26] = system: P388; assay: Antitumor activity against intraperitoneally implanted P388 leukemia cells in mice expressed as ratio of median survival time for treated group to that of control group given in equally divided doses on days 1,4 and 7; type: functional, Mus musculus

CO[C@@]12C(COC(N)=O)C3=C(C(=O)C(C)=C(OCc4ccccc4)C3=O)N1CC1NC12 (stereo not given in full)
logP [1]: 2.22 | T/C [2]: 167% | minimal effective dose at 3.2 mg/kg [3]: < 0.2 mg/kg

COCCOCCOC1=C(C)C(=O)C2=C(C1=O)C(COC(N)=O)[C@@]1(OC)C3NC3CN21 (stereo not given in full)
logP [1]: 0.32 | T/C ([4]; 0.8 mg/kg): >191% and >265% | minimal effective dose at 0.8 mg/kg [5]: 0.4 mg/kg | MED [5]: 0.4 mg/kg | T/C [6]: 225% | minimal effective dose at 0.8 mg/kg [7]: < 0.1 mg/kg

CO[C@@]12C(COC(N)=O)C3=C(C(=O)C(C)=C(OCC4CCCCO4)C3=O)N1CC1NC12 (stereo not given in full)
logP [1]: 1.79 | T/C [8]: 161% | minimal effective dose at 0.8 mg/kg [9]: 0.1 mg/kg

CO[C@@]12C(COC(N)=O)C3=C(C(=O)C(C)=C(OCCCCl)C3=O)N1CC1NC12 (stereo not given in full)
logP [1]: 1.65 | T/C [2]: 150% | minimal effective dose at 3.2 mg/kg [10]: 0.2 mg/kg

CO[C@@]12C(COC(N)=O)C3=C(C(=O)C(C)=C(OCCCO)C3=O)N1CC1NC12 (stereo not given in full)
logP [1]: 0.14 | T/C [11]: 175% | minimal effective dose at 1.6 mg/kg [12]: 0.05 mg/kg

CO[C@@]12C(COC(N)=O)C3=C(C(=O)C(C)=C(OCCOCCO)C3=O)N1CC1NC12 (stereo not given in full)
T/C [4]: >265% | minimal effective dose at 0.8 mg/kg [13]: 0.4 mg/kg | T/C [14]: 210% | minimal effective dose at 0.4 mg/kg [15]: 0.1 mg/kg

CO[C@@]12C(COC(N)=O)C3=C(C(=O)C(C)=C(OCc4ccco4)C3=O)N1CC1NC12 (stereo not given in full)
logP [1]: 1.6 | T/C [16]: 139% | minimal effective dose at 6.4 mg/kg [17]: 6.4 mg/kg

CO[C@@]12C(COC(N)=O)C3=C(C(=O)C(C)=C(OC4CCOC4)C3=O)N1CC1NC12 (stereo not given in full)
logP [1]: 0.79 | T/C [18]: 135% | T/C [19]: 198% | minimal effective dose at 1.6 mg/kg [20]: 1.6 mg/kg | T/C [2]: 178% | minimal effective dose at 3.2 mg/kg [10]: < 0.05 mg/kg

CCOCCOCCOC1=C(C)C(=O)C2=C(C1=O)C(COC(N)=O)[C@@]1(OC)C3NC3CN21 (stereo not given in full)
logP [1]: 0.82 | T/C [21]: 196% | minimal effective dose at 0.4 mg/kg [22]: 0.2 mg/kg | T/C [11]: 167% | minimal effective dose at 1.6 mg/kg [12]: < 0.1 mg/kg

CO[C@@]12C(COC(N)=O)C3=C(C(=O)C(C)=C(OCCSSCCO)C3=O)N1CC1NC12 (stereo not given in full)
logP [1]: 1.35 | T/C [4]: 243% | T/C [23]: 136% | minimal effective dose at 0.8 mg/kg [5]: 0.2 mg/kg | T/C [11]: 259%

CO[C@@]12C(COC(N)=O)C3=C(C(=O)C(C)=C(OCCO)C3=O)N1CC1NC12 (stereo not given in full)
T/C [21]: 178% | minimal effective dose at 0.4 mg/kg [22]: 0.2 mg/kg | T/C [24]: 217% | T/C ([14]; 0.4 mg/kg): 178% and >328% | minimal effective dose at 0.2 mg/kg [25]: < 0.1 mg/kg | minimal effective dose at 0.4 mg/kg [15]: 0.0063 mg/kg | MED [15]: 0.0063 mg/kg | T/C [26]: 194%

CO[C@@]12C(COC(N)=O)C3=C(C(=O)C(C)=C(OCCSCCO)C3=O)N1CC1NC12 (stereo not given in full)
logP [1]: 1.07 | T/C [6]: 250% | minimal effective dose at 0.8 mg/kg [7]: < 0.1 mg/kg

CO[C@@]12C(COC(N)=O)C3=C(C(=O)C(C)=C(OCC4CCC4)C3=O)N1CC1NC12 (stereo not given in full)
logP [1]: 2.26 | T/C [11]: 144% | minimal effective dose at 1.6 mg/kg [12]: 0.4 mg/kg
